From ChEMBL document CHEMBL1201862, “PubChem BioAssay data set” (2004)
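48-hour exposure; five concentrations; linearly interpolated endpoints. Here, GI50 denotes the concentration required for 50% inhibition of growth.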 The source made the active and inactive calls. Cut-off read from the data, not from the text of the source: active = GI50 up to about 1.1 µM and inactive = higher.

Columns and labels:
Test in all cases: NCI anticancer screen, dose series, 48 h
SNB-19 = system: SNB-19
K562 = system: K562
CAKI-1 = system: CAKI-1
NCI-H460 = system: NCI-H460
SK-MEL-2 = system: SK-MEL-2
IGROV-1 = system: IGROV-1
COLO 205 = system: COLO 205
NCI/ADR-RES = system: NCI/ADR-RES
EKVX = system: EKVX
UACC-257 = system: UACC-257
HL-60 = system: HL-60
NCI-H226 = system: NCI-H226
ACHN = system: ACHN
UO-31 = system: UO-31
Hs-578T = system: Hs-578T
T47D = system: T47D
UACC-62 = system: UACC-62
MDA-N = system: MDA-N
Malme-3M = system: Malme-3M

SMILES	GI50 (SNB-19)	GI50 (K562)	GI50 (CAKI-1)	GI50 (NCI-H460)	GI50 (SK-MEL-2)	GI50 (IGROV-1)	GI50 (COLO 205)	GI50 (NCI/ADR-RES)	GI50 (EKVX)	GI50 (UACC-257)	GI50 (HL-60)	GI50 (NCI-H226)	GI50 (ACHN)	GI50 (UO-31)	GI50 (Hs-578T)	GI50 (T47D)	GI50 (UACC-62)	GI50 (MDA-N)	GI50 (Malme-3M)
C/C(=N/NC(=S)N1CCN(C(=S)N/N=C(/C)c2ccccn2)CC1)c1ccccn1	11.7 µM (inactive)	16.3 µM (inactive)	6.56 µM (inactive)	2.99 µM (inactive)	> 100 µM (inactive)	17.7 µM (inactive)	4.16 µM (inactive)	4.16 µM (inactive)	15.6 µM (inactive)	16.3 µM (inactive)	0.352 µM (active)	6.89 µM (inactive)	2.52 µM (inactive)	2.69 µM (inactive)	> 38 µM (inactive)	3.52 µM (inactive)	6.71 µM (inactive)	> 77.8 µM (inactive)	4.6 µM (inactive)
CC(=O)OCC1OC(n2c(C#N)cc(=O)[nH]c2=O)CC1OC(C)=O (stereo not drawn)	> 100 µM (inactive)	> 100 µM (inactive)	> 100 µM (inactive)	> 100 µM (inactive)	> 100 µM (inactive)	> 100 µM (inactive)	> 100 µM (inactive)	> 100 µM (inactive)	> 100 µM (inactive)	> 100 µM (inactive)	> 100 µM (inactive)	> 100 µM (inactive)	> 100 µM (inactive)	> 100 µM (inactive)	> 100 µM (inactive)	> 100 µM (inactive)	> 100 µM (inactive)	> 100 µM (inactive)	> 100 µM (inactive)
O=C(O)c1ccccc1CC(Cc1ccc2c(c1)CCC2)C(=O)O (stereo not drawn)	> 100 µM (inactive)	> 100 µM (inactive)	> 100 µM (inactive)	> 100 µM (inactive)	> 100 µM (inactive)	> 100 µM (inactive)	> 100 µM (inactive)	> 100 µM (inactive)	> 100 µM (inactive)	> 100 µM (inactive)	> 100 µM (inactive)	> 100 µM (inactive)	> 100 µM (inactive)	> 100 µM (inactive)	> 100 µM (inactive)	> 100 µM (inactive)		> 100 µM (inactive)	> 100 µM (inactive)
CN(C)/C=N/c1ccc2nonc2c1	> 100 µM (inactive)	> 100 µM (inactive)	> 100 µM (inactive)	> 100 µM (inactive)	> 100 µM (inactive)	> 100 µM (inactive)	> 100 µM (inactive)	> 100 µM (inactive)	> 100 µM (inactive)	> 100 µM (inactive)	> 100 µM (inactive)	> 100 µM (inactive)	> 100 µM (inactive)	> 100 µM (inactive)	> 100 µM (inactive)	> 100 µM (inactive)	> 100 µM (inactive)	> 100 µM (inactive)	> 100 µM (inactive)
Cc1ccc(/N=C2\OP(=O)(Nc3ccc(C)cc3)Oc3ccccc32)cc1 (stereo not drawn)	> 100 µM (inactive)	50.6 µM (inactive)	> 100 µM (inactive)	> 100 µM (inactive)	> 100 µM (inactive)	> 100 µM (inactive)	> 100 µM (inactive)	> 100 µM (inactive)	> 100 µM (inactive)	> 100 µM (inactive)	> 100 µM (inactive)	> 100 µM (inactive)	> 100 µM (inactive)	97.7 µM (inactive)	> 100 µM (inactive)	> 100 µM (inactive)	> 100 µM (inactive)	> 100 µM (inactive)	> 100 µM (inactive)
O=C(Nc1nn(C(=O)c2cccnc2)c(=O)s1)c1ccc(Cl)cc1	> 100 µM (inactive)	47.5 µM (inactive)	40.6 µM (inactive)	> 100 µM (inactive)	> 100 µM (inactive)		40.6 µM (inactive)	> 100 µM (inactive)	50.6 µM (inactive)	> 100 µM (inactive)	60.3 µM (inactive)	22.5 µM (inactive)	> 100 µM (inactive)	1.8 µM (inactive)	29.2 µM (inactive)	27 µM (inactive)	> 100 µM (inactive)	> 100 µM (inactive)	31.6 µM (inactive)
Cc1cccc(-c2cc(O)c3cc(C)cnc3n2)c1	0.366 µM (active)	0.0411 µM (active)	0.199 µM (active)	0.311 µM (active)	0.224 µM (active)	0.54 µM (active)	0.105 µM (active)	0.122 µM (active)	0.705 µM (active)		0.0338 µM (active)	0.238 µM (active)	0.532 µM (active)	0.745 µM (active)	0.244 µM (active)	6.5 µM (inactive)	0.331 µM (active)	0.0194 µM (active)	0.111 µM (active)
O=C(O)[C@@H]1CCCN1 [PROLINE]	> 100 µM (inactive)	> 100 µM (inactive)		> 100 µM (inactive)	> 100 µM (inactive)	> 100 µM (inactive)	> 100 µM (inactive)	> 100 µM (inactive)	> 100 µM (inactive)	> 100 µM (inactive)	> 100 µM (inactive)	> 100 µM (inactive)	> 100 µM (inactive)	> 100 µM (inactive)	> 100 µM (inactive)	> 100 µM (inactive)	> 100 µM (inactive)	> 100 µM (inactive)	> 100 µM (inactive)
